In the NIST ThermoML archive (doi:10.1016/j.tca.2017.12.015) one finds Normal melting temperature and Triple point temperature data, which are given here for five molecules.

Numbers after ± are expanded uncertainties.

For the data set the following is noted: for Normal melting temperature: Crystal 1, DTA.

Regarding `NCC(=O)O` [2-aminoacetic acid], the Normal melting temperature is 254.70 ± 2 °C.

Consider `O=C[C@H](O)[C@@H](O)[C@H](O)[C@H](O)CO` [D-glucose], for which the Normal melting temperature came out at 162.10 ± 2 °C.

For `OC[C@@H](O)[C@@H](O)[C@H](O)[C@@H](O)CO` [D-sorbitol], the Normal melting temperature turned out to be 99.70 ± 2 °C.

For the molecule `OC[C@H]1O[C@@](CO)(O[C@H]2O[C@H](CO)[C@@H](O)[C@H](O)[C@H]2O)[C@@H](O)[C@@H]1O` [D-sucrose], the Normal melting temperature stood at 190.90 ± 2 °C.

In the case of `Cn1c(=O)c2c(ncn2C)n(C)c1=O` [caffeine], the Normal melting temperature stood at 236.20 ± 2 °C. Under “Crystal 2, DSC”, the Triple point temperature turned out to be 432.55 ± 6 K.
